In US10131652B2, “Pyrimidinyloxy benzene derivatives as herbicides” (E. I. DU PONT DE NEMOURS AND COMPANY, priority 2014, dated 2018):
Where two headings read alike, the source gives them in different places.

Tests used:
Type in all cases: in vivo
[1] = system: ducksalad (Heteranthera limosa); test: Test D flooded paddy test plant response; settings: Flood (flooded paddy test), visual rating on scale 0 to 100 (0 no effect, 100 complete control), 13 to 15 days
Description: (§1) Plant species in the flooded paddy test consisted of rice (Oryza sativa), small-flower umbrella sedge (Cyperus difformis), ducksalad (Heteranthera limosa), and bamyardgrass (Echinochloa crus-galli) grown to the 2-leaf stage for testing. At time of treatment, test pots were flooded to 3 cm above the soil surface, treated by application of test compounds directly to the paddy water, and then maintained at that water depth for the duration of the test. Treated plants and controls were maintained in a greenhouse for 13 to 15 days, after which time all species were compared to controls and visually evaluated. Plant response ratings, summarized in Table D, are based on a scale of 0 to 100 where 0 is no effect and 100 is complete control. A dash (-) response means no test result.

[2] = system: rice (Oryza sativa); test: Test D flooded paddy test plant response; settings: Flood (flooded paddy test), visual rating on scale 0 to 100 (0 no effect, 100 complete control), 13 to 15 days
Description: as §1

[3] = system: small-flower umbrella sedge (Cyperus difformis); test: Test D flooded paddy test plant response; settings: Flood (flooded paddy test), visual rating on scale 0 to 100 (0 no effect, 100 complete control), 13 to 15 days
Description: as §1

[4] = system: barnyardgrass (Echinochloa crus-galli); test: Test D flooded paddy test plant response; settings: Flood (flooded paddy test), visual rating on scale 0 to 100 (0 no effect, 100 complete control), 13 to 15 days
Description: as §1

[5] = system: Horseweed; test: Test F postemergence plant response; settings: scale 0 to 100
[6] = system: windgrass (Apera spica-venti); test: Test E pre-/postemergence plant response; settings: scale 0 to 100, read-out: Plant response rating, Windgrass; for pest or weed control at 16 g/ha: 16 g ai/ha; for pest or weed control at 31 g/ha: 31 g ai/ha; for pest or weed control at 62 g/ha: 62 g ai/ha; for pest or weed control at 125 g/ha: 125 g ai/ha
Description: (§2) Seeds of plant species selected from bluegrass (annual bluegrass, Poa annua), blackgrass (Alopecurus myosuroides), canarygrass (Phalaris minor), chickweed (common chickweed, Stellaria media), galium (catchweed bedstraw, Galium aparine), downy bromegrass (Bromus tectorum), field poppy (Papaver rhoeas), field violet (Viola arvensis), green foxtail (Setaria viridis), deadnettle (henbit deadnettle, Lamium amplexicaule), Italian ryegrass (Lolium multiflorum), kochia (Kochia scoparia), lambsquarters (Chenopodium album), oilseed rape (Brassica napus), pigweed (Amaranthus retroflexus), Russian thistle (Salsola iberica), chamomile (scentless chamomile, Matricaria inodora), speedwell (bird's-eye speedwell, Veronica persica), spring barley (Hordeum vulgare), spring wheat (Triticum aestivum), wild buckwheat (Polygonum convolvulus), wild mustard (Sinapis arvensis), wild oat (Avena fatua), wild radish (Raphanus raphanistrum), windgrass (Apera spica-venti), winter barley (Hordeum vulgare), and winter wheat (Triticum aestivum) were planted into a silt loam soil and treated preemergence with test chemicals formulated in a non-phytotoxic solvent mixture which included a surfactant. At the same time, these species were planted in pots containing Redi-Earth® planting medium (Scotts Company, 14111 Scottslawn Road, Marysville, Ohio 43041) comprising spaghnum peat moss, vermiculite, wetting agent and starter nutrients and treated with postemergence applications of the test chemicals formulated in the same manner. Plants ranged in height from 2 to 18 cm (1- to 4-leaf stage).
(§3) Treated plants and controls were maintained in a controlled growth environment for 7 to 21 days after which time all species were compared to controls and visually evaluated. Plant response ratings, summarized in Table E, are based on a scale of 0 to 100 where 0 is no effect and 100 is complete control. A dash (-) response means no test result.

[7] = system: wild oat (Avena fatua); test: Test E pre-/postemergence plant response; settings: scale 0 to 100, read-out: Plant response rating, Oat, Wild; for pest or weed control at 16 g/ha: 16 g ai/ha; for pest or weed control at 31 g/ha: 31 g ai/ha; for pest or weed control at 62 g/ha: 62 g ai/ha; for pest or weed control at 125 g/ha: 125 g ai/ha
Description: as §2, §3

Fc1cccc(Oc2ncc(Cl)cn2)c1-c1cc(C(F)F)on1 [Compound 55, 5-chloro-2-[2-[5-(difluoromethyl)-3-isoxazolyl]-3-fluorophenoxy]pyrimidine]
Plant response rating, Ducksalad ([1]; 31 g ai/ha): 75
Plant response rating, Ducksalad ([1]; 62 g ai/ha): 80
Plant response rating, Ducksalad ([1]; 125 g ai/ha): 85
Plant response rating, Ducksalad ([1]; 250 g ai/ha): 90
Plant response rating, Rice ([2]; 31 g ai/ha): 0
Plant response rating, Rice ([2]; 62 g ai/ha): 0
Plant response rating, Rice ([2]; 125 g ai/ha): 0
Plant response rating, Rice ([2]; 250 g ai/ha): 0
Plant response rating, Sedge, Umbrella ([3]; 31 g ai/ha): 75
Plant response rating, Sedge, Umbrella ([3]; 62 g ai/ha): 75
Plant response rating, Sedge, Umbrella ([3]; 125 g ai/ha): 85
Plant response rating, Sedge, Umbrella ([3]; 250 g ai/ha): 100
Plant response rating, Barnyardgrass ([4]; 31 g ai/ha): 0
Plant response rating, Barnyardgrass ([4]; 62 g ai/ha): 0
Plant response rating, Barnyardgrass ([4]; 125 g ai/ha): 10
Plant response rating, Barnyardgrass ([4]; 250 g ai/ha): 30
Plant response rating, Horseweed ([5]; 31 g ai/ha Postemergence): 15
Plant response rating, Horseweed ([5]; 62 g ai/ha Postemergence): 20
pest or weed control at 16 g/ha ([6]; post-emergence, Postemergence): 5%
pest or weed control at 31 g/ha ([6]; post-emergence, Postemergence): 10%
pest or weed control at 62 g/ha ([6]; post-emergence, Postemergence): 25%
pest or weed control at 125 g/ha ([6]; post-emergence, Postemergence): 40%
pest or weed control at 16 g/ha ([6]; pre-emergence, Preemergence): 5%
pest or weed control at 62 g/ha ([6]; pre-emergence, Preemergence): 100%
pest or weed control at 125 g/ha ([6]; pre-emergence, Preemergence): 100%
pest or weed control at 16 g/ha ([7]; post-emergence, Postemergence): 10%
pest or weed control at 31 g/ha ([7]; post-emergence, Postemergence): 15%
pest or weed control at 62 g/ha ([7]; post-emergence, Postemergence): 40%
pest or weed control at 125 g/ha ([7]; post-emergence, Postemergence): 50%
pest or weed control at 16 g/ha ([7]; pre-emergence, Preemergence): 0%
pest or weed control at 31 g/ha ([7]; pre-emergence, Preemergence): 15%
pest or weed control at 62 g/ha ([7]; pre-emergence, Preemergence): 35%
pest or weed control at 125 g/ha ([7]; pre-emergence, Preemergence): 45%

Fc1cccc(Oc2ncc(Cl)cn2)c1-c1cc(C(F)F)no1 [Compound 144, 5-chloro-2-[2-[3-(difluoromethyl)-5-isoxazolyl]-3-fluorophenoxy]pyrimidine]
Plant response rating, Ducksalad ([1]; 31 g ai/ha): 75
Plant response rating, Ducksalad ([1]; 62 g ai/ha): 85
Plant response rating, Ducksalad ([1]; 125 g ai/ha): 90
Plant response rating, Ducksalad ([1]; 250 g ai/ha): 100
Plant response rating, Rice ([2]; 31 g ai/ha): 0
Plant response rating, Rice ([2]; 62 g ai/ha): 15
Plant response rating, Rice ([2]; 125 g ai/ha): 25
Plant response rating, Rice ([2]; 250 g ai/ha): 40
Plant response rating, Sedge, Umbrella ([3]; 31 g ai/ha): 65
Plant response rating, Sedge, Umbrella ([3]; 62 g ai/ha): 80
Plant response rating, Sedge, Umbrella ([3]; 125 g ai/ha): 95
Plant response rating, Sedge, Umbrella ([3]; 250 g ai/ha): 95
Plant response rating, Barnyardgrass ([4]; 31 g ai/ha): 0
Plant response rating, Barnyardgrass ([4]; 62 g ai/ha): 0
Plant response rating, Barnyardgrass ([4]; 125 g ai/ha): 15
Plant response rating, Barnyardgrass ([4]; 250 g ai/ha): 35
Plant response rating, Horseweed ([5]; 16 g ai/ha Postemergence): 0
Plant response rating, Horseweed ([5]; 31 g ai/ha Postemergence): 0
Plant response rating, Horseweed ([5]; 62 g ai/ha Postemergence): 10
Plant response rating, Horseweed ([5]; 125 g ai/ha Postemergence): 25
pest or weed control at 16 g/ha ([6]; post-emergence, Postemergence): 10%
pest or weed control at 31 g/ha ([6]; post-emergence, Postemergence): 20%
pest or weed control at 62 g/ha ([6]; post-emergence, Postemergence): 25%
pest or weed control at 125 g/ha ([6]; post-emergence, Postemergence): 55%
pest or weed control at 16 g/ha ([6]; pre-emergence, Preemergence): 10%
pest or weed control at 62 g/ha ([6]; pre-emergence, Preemergence): 100%
pest or weed control at 125 g/ha ([6]; pre-emergence, Preemergence): 100%
pest or weed control at 16 g/ha ([7]; post-emergence, Postemergence): 20%
pest or weed control at 31 g/ha ([7]; post-emergence, Postemergence): 25%
pest or weed control at 62 g/ha ([7]; post-emergence, Postemergence): 65%
pest or weed control at 125 g/ha ([7]; post-emergence, Postemergence): 90%
pest or weed control at 16 g/ha ([7]; pre-emergence, Preemergence): 35%
pest or weed control at 31 g/ha ([7]; pre-emergence, Preemergence): 30%
pest or weed control at 62 g/ha ([7]; pre-emergence, Preemergence): 65%
pest or weed control at 125 g/ha ([7]; pre-emergence, Preemergence): 75%

Fc1cccc(Oc2ncc(Br)cn2)c1-c1cc(C(F)F)no1 [Compound 145, 5-bromo-2-[2-[3-(difluoromethyl)-5-isoxazolyl]-3-fluorophenoxy]pyrimidine]
Plant response rating, Ducksalad ([1]; 31 g ai/ha): 80
Plant response rating, Ducksalad ([1]; 62 g ai/ha): 85
Plant response rating, Ducksalad ([1]; 125 g ai/ha): 95
Plant response rating, Ducksalad ([1]; 250 g ai/ha): 95
Plant response rating, Rice ([2]; 31 g ai/ha): 0
Plant response rating, Rice ([2]; 62 g ai/ha): 15
Plant response rating, Rice ([2]; 125 g ai/ha): 15
Plant response rating, Rice ([2]; 250 g ai/ha): 35
Plant response rating, Sedge, Umbrella ([3]; 31 g ai/ha): 60
Plant response rating, Sedge, Umbrella ([3]; 62 g ai/ha): 75
Plant response rating, Sedge, Umbrella ([3]; 125 g ai/ha): 90
Plant response rating, Sedge, Umbrella ([3]; 250 g ai/ha): 90
Plant response rating, Barnyardgrass ([4]; 31 g ai/ha): 0
Plant response rating, Barnyardgrass ([4]; 62 g ai/ha): 0
Plant response rating, Barnyardgrass ([4]; 125 g ai/ha): 0
Plant response rating, Barnyardgrass ([4]; 250 g ai/ha): 35
Plant response rating, Horseweed ([5]; 16 g ai/ha Postemergence): 0
Plant response rating, Horseweed ([5]; 31 g ai/ha Postemergence): 20
Plant response rating, Horseweed ([5]; 62 g ai/ha Postemergence): 20
Plant response rating, Horseweed ([5]; 125 g ai/ha Postemergence): 40
pest or weed control at 16 g/ha ([6]; post-emergence, Postemergence): 5%
pest or weed control at 31 g/ha ([6]; post-emergence, Postemergence): 10%
pest or weed control at 62 g/ha ([6]; post-emergence, Postemergence): 20%
pest or weed control at 125 g/ha ([6]; post-emergence, Postemergence): 60%
pest or weed control at 16 g/ha ([6]; pre-emergence, Preemergence): 10%
pest or weed control at 62 g/ha ([6]; pre-emergence, Preemergence): 75%
pest or weed control at 125 g/ha ([6]; pre-emergence, Preemergence): 98%
pest or weed control at 16 g/ha ([7]; post-emergence, Postemergence): 15%
pest or weed control at 31 g/ha ([7]; post-emergence, Postemergence): 30%
pest or weed control at 62 g/ha ([7]; post-emergence, Postemergence): 40%
pest or weed control at 125 g/ha ([7]; post-emergence, Postemergence): 80%
pest or weed control at 16 g/ha ([7]; pre-emergence, Preemergence): 25%
pest or weed control at 31 g/ha ([7]; pre-emergence, Preemergence): 30%
pest or weed control at 62 g/ha ([7]; pre-emergence, Preemergence): 30%
pest or weed control at 125 g/ha ([7]; pre-emergence, Preemergence): 85%

FC(F)c1cc(-c2ccccc2Oc2ncc(Br)cn2)on1 [Compound 212]
Plant response rating, Horseweed ([5]; 16 g ai/ha Postemergence): 0
Plant response rating, Horseweed ([5]; 31 g ai/ha Postemergence): 0
Plant response rating, Horseweed ([5]; 62 g ai/ha Postemergence): 15
Plant response rating, Horseweed ([5]; 125 g ai/ha Postemergence): 10

Fc1ccc(Oc2ncc(Cl)cn2)c(-c2cc(C(F)(Cl)Cl)on2)c1 [Compound 221]
Plant response rating, Ducksalad ([1]; 62 g ai/ha): 80
Plant response rating, Ducksalad ([1]; 250 g ai/ha): 90
Plant response rating, Rice ([2]; 62 g ai/ha): 15
Plant response rating, Rice ([2]; 250 g ai/ha): 40
Plant response rating, Sedge, Umbrella ([3]; 62 g ai/ha): 80
Plant response rating, Sedge, Umbrella ([3]; 250 g ai/ha): 95
Plant response rating, Barnyardgrass ([4]; 62 g ai/ha): 40
Plant response rating, Barnyardgrass ([4]; 250 g ai/ha): 60
Plant response rating, Horseweed ([5]; 16 g ai/ha Postemergence): 0
Plant response rating, Horseweed ([5]; 31 g ai/ha Postemergence): 5
Plant response rating, Horseweed ([5]; 62 g ai/ha Postemergence): 10
Plant response rating, Horseweed ([5]; 125 g ai/ha Postemergence): 30
